According to patent US20250375457A1, “TOPICAL PHARMACEUTICAL COMPOSITIONS AND USES THEREOF” (Shenzhen Pharmacin Co., Ltd., priority 2022, published 2025):
Read-outs that look alike come from different tables or passages of the source.

Assays:
[1] = cited from earlier work
British guinea pigs = format: in vivo; conditions: single skin application 0.2 mL/site, irradiation 10±1 J/cm^2, observed to 72 hours
Protocol: Phototoxicity of midostaurin cream was tested using British guinea pigs as a model. Male guinea pigs were randomly divided into groups and given a single skin application of physiological saline (negative control), 8-MOP (positive control), 1.0% midostaurin cream, and midostaurin cream blank matrix. The dose given is 0.2 mL/site and the administration site was fixed after the treatment was applied. After 0.5 hours, the administration site was irradiated by the sunlight simulator of Dr. Hönle AG (SOL500) to reach the specified irradiation amount of 10±1 J/cm^2. The irradiance was measured with a UV radiometer equipped with type UVA FO from Dr. Hönle AG. The first day of dosing is designated as day 1 of the trial (Day 1). After the irradiation, the skin irritation of the administration site was observed and scored at 1+0.5 hours, 24 hours, 48 hours and 72 hours, respectively.

[2] = Equilibrium solubility of midostaurin in different solvents (HPLC); format: physicochemical; conditions: thermodynamic from solid, 25° C., 24-72 hours
Protocol: Many different solvents were evaluated for their compatibility with midostaurin. […] Solubility was measured by HPLC.

[3] = Solubility of midostaurin in solubilizer-water mixture systems; format: physicochemical; conditions: solubilizer-water mixtures, aqueous with cosolvent or surfactant or cyclodextrin, thermodynamic from solid, Transcutol, Labrasol, Tween 80, Cremphor EL, Kolliphor HS15 at 10%, 20%, 30% v/v in water, 25° C.
Protocol: The solubility of midostaurin in a system with water and a solubilizer combined at a certain ratio was also evaluated. The method involves adding excess amorphous midostaurin powders into various concentrations of solubilizer and water systems and mixed for 24 hours at 25° C. with 600 rpm to ensure equilibrium was achieved. Solubilizers selected for this study include Transcutol, Labrasol, Tween 80, Cremphor EL, and Kolliphor HS15. Each solubilizer is mixed with water at 10%, 20%, and 30% v/v, respectively, to form a system where amorphous midostaurin power was dissolved.

[4] = Excipient compatibility study (impurities by HPLC); format: physicochemical; conditions: 1:200 (w/w), 60° C. for 10 days
Protocol: Midostaurin was mixed with many excipients used in topical formulations at 1:200 (w/w) and was placed at 60° C. for 10 days before testing.

solubility ([2]; oil or lipid, corn oil, read-out: solubility in corn oil) | solubility ([2]; oil or lipid, soybean oil, read-out: solubility in soybean oil) | solubility ([2]; organic solvent or mixture, Labrasol, read-out: solubility in Labrasol) | solubility ([2]; organic solvent or mixture, Tween 80, read-out: solubility in Tween 80) | solubility ([2]; organic solvent or mixture, ethanol, read-out: solubility in ethanol) | solubility ([2]; organic solvent or mixture, glycerol, read-out: solubility in glycerol) | solubility at 24 h [3] | Impurity results (%) RRT 0.91 [4] | Impurity results (%) RRT 0.93 [4] | Impurity results (%) RRT 0.97 [4] | Impurity results (%) RRT 1.00 (midostaurin assay content) [4] | Impurity results (%) RRT 1.10 [4] | SMILES | log P [1] | phototoxicity (edema and erythema at administration site after UV irradiation) (British guinea pigs)
 |  |  |  |  |  |  |  |  |  |  |  | Oc1ccc(O)cc1 [Hydroquinone, hydroquinone] | 1.09 | 
 |  |  |  |  |  |  |  |  |  |  |  | COc1c2occc2cc2ccc(=O)oc12 [Lot 8-MOP] |  | Edema and erythema
< 10000 µg/mL | < 10000 µg/mL | > 50000 µg/mL | > 50000 µg/mL | < 10000 µg/mL | < 10000 µg/mL | < 10000 µg/mL | 0.07% | 0.11% | 0.12% | 99.64% | 0.06% | CO[C@@H]1[C@H](N(C)C(=O)c2ccccc2)C[C@H]2O[C@]1(C)n1c3ccccc3c3c4c(c5c6ccccc6n2c5c31)C(=O)NC4 [Midostaurin, midostaurin] | 5.27 | 
